# Like-named read-outs stand apart in the source and are kept apart here.
# Assays:
# HCT116 MTAP KO cells = assay: Inhibitory activity against cell proliferation (CellTiter Glo, 6 days), HCT116 MTAP KO; type: cell-based; conditions: for IC50: Homo sapiens, HCT-116, 144 h, HCT116 MTAP KO cells, 6 days, CellTiter Glo, read-out: HCT116 MTAP KO IC50; for Selectivity HCT 116-WT/ HCT116 MTAP KO: ratio of IC50 HCT116-WT / HCT116 MTAP KO
# Method in brief: (§1)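 Cells were seeded at 250 per well in McCoy's 5A with 10% FBS and left overnight at 37°C, 5% CO2. Compounds were added as 8-point, 4-fold dilutions from 10000 nM, with DMSO-only controls, for 6 days. IC50 values came from CellTiter Glo luminescence.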
# HCT116-WT cells = assay: Inhibitory activity against cell proliferation (CellTiter Glo, 6 days), HCT116-WT; type: cell-based; conditions: 144 h, HCT116-WT cells, 6 days, CellTiter Glo; read-out: HCT116-WT IC50
# Method in brief: as §1
# PRMT5-MTA = PRMT5-MTA (Homo sapiens, UniProt O14744); assay: Enzymatic inhibitory activity against PRMT5-MTA (AlphaScreen); type: biochemical
# Chain of PRMT5-MTA (O14744 whole entry): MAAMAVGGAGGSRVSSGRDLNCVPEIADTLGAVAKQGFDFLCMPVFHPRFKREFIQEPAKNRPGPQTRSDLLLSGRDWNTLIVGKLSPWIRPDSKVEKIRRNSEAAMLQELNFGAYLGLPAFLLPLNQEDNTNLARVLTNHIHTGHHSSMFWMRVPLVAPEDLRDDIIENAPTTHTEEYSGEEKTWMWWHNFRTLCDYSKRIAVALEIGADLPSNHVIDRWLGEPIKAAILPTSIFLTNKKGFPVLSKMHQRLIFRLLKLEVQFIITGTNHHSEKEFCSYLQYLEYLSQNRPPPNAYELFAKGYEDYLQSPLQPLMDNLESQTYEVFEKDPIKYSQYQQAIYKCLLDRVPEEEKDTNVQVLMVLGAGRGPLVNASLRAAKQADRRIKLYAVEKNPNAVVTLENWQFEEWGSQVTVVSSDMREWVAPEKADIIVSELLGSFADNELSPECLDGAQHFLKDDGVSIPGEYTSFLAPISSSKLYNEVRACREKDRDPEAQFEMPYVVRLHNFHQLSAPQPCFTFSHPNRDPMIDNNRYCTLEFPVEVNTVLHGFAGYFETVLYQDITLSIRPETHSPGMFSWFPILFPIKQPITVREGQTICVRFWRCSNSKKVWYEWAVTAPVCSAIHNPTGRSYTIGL
# Chain of PRMT5-MTA (Q9BQA1 whole entry partner): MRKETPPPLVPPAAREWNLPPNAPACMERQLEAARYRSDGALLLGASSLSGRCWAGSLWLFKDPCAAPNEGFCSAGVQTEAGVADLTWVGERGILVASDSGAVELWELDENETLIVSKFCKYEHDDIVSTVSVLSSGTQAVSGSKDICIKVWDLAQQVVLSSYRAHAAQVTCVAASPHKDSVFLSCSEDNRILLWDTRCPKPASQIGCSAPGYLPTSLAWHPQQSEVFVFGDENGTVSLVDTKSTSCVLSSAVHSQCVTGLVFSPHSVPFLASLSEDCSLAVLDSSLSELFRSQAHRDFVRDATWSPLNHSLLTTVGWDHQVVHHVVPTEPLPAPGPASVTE
# Method in brief: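 PRMT5/[…] (1 nM) was preincubated for 30 min at room temperature with 1 µM […] and 2.5 µM SAM, then exposed to compound (10-point, 3-fold from 1000 nM) for 15 min at 23 °C. Histone H4 substrate (5 nM) was added and reacted for 45 min at 23 °C. Symmetric dimethyl-R3 H4 was detected by AlphaScreen and IC50 calculated.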
SMILES,IC50 (HCT116 MTAP KO cells),Selectivity HCT 116-WT/ HCT116 MTAP KO (HCT116 MTAP KO cells),IC50 (HCT116-WT cells),IC50 (PRMT5-MTA; read-out: IC50),IC50 (PRMT5-MTA)
"C#Cc1cnc(N2CC(C)CN2C(=O)c2cc3c(cc2C)nc(N)c2cnn(C)c23)c(F)c1 (centres unmarked) [Example 494, (4-amino-1,7-dimethyl-1H-pyrazolo[4,3-c]quinolin-8-yl)(2-(5-ethynyl-3-fluoropyridin-2-yl)-4-methylpyrazolidin-1-yl)methanone]",29 nM,34.62,1000 nM,4.6 nM,–
"Cc1cc2nc(N)c3cnn(C)c3c2cc1C(=O)N1CC(C)CN1c1ncc(-c2cncs2)cc1F (centres unmarked) [Example 481, (4-amino-1,7-dimethyl-1H-pyrazolo[4,3-c]quinolin-8-yl)(2-(3-fluoro-5-(thiazol-5-yl)pyridin-2-yl)-4-methylpyrazolidin-1-yl)methanone]",15 nM,47.20,708 nM,3.7 nM,–
"Cc1cc2nc(N)c3cnn(C)c3c2cc1C(=O)N1CCCN1c1ncccc1F [Example 342, (4-amino-1,7-dimethyl-1H-pyrazolo[4,3-c]quinolin-8-yl)(2-(3-fluoropyridin-2-yl)pyrazolidin-1-yl)methanone]",100 nM,67.95,6800 nM,3.8 nM,–
"Cc1cc2cc(C(=O)N(Cc3ccc(-c4cnn(C5COC5)c4)cn3)N(C)c3ncccn3)ccc2nc1N [Example 169, 2-amino-N',3-dimethyl-N-((5-(1-(oxetan-3-yl)-1H-pyrazol-4-yl)pyridin-2-yl)methyl)-N'-(pyrimidin-2-yl)quinoline-6-carbohydrazide]",39 nM,24.95,973 nM,2.5 nM,–
"CCOc1ccc(N2CC(C)CN2C(=O)c2cc3c(cc2C)nc(N)c2cnn(C)c23)nn1 (centres unmarked) [Example 385, (4-amino-1,7-dimethyl-1H-pyrazolo[4,3-c]quinolin-8-yl)(2-(6-ethoxypyridazin-3-yl)-4-methylpyrazolidin-1-yl)methanone]",104 nM,36.22,3770 nM,5.4 nM,–
"Cc1cc2nc(N)c3cnn(C)c3c2cc1C(=O)N1CC(C)CN1c1ncc(C#CC(C)(C)O)cc1F (centres unmarked) [Example 493, (4-amino-1,7-dimethyl-1H-pyrazolo[4,3-c]quinolin-8-yl)(2-(3-fluoro-5-(3-hydroxy-3-methyl-but-1-yn-1-yl)pyridin-2-yl)-4-methylpyrazolidin-1-yl)methanone]",68 nM,27.94,1900 nM,5.1 nM,–
"C=C(C)c1cccnc1N(C)N(Cc1ccc(C(F)(F)F)cn1)C(=O)c1ccc2nc(N)c(C)cc2c1 [Example 135, 2-amino-N',3-dimethyl-N'-(3-(prop-1-en-2-yl)pyridin-2-yl)-N-((5-(trifluoromethyl)pyridin-2-yl)methyl)quinoline-6-carbohy drazide]",163 nM,12.75,2080 nM,3.2 nM,–
COC1CN(C(=O)c2cc3c(cc2C)nc(N)c2cnn(C)c23)N(c2ccccc2F)C1 (centres unmarked) [Example 436],27 nM,27.19,734 nM,–,4.8 nM
"Cc1cc2nc(N)c3cnn(C)c3c2cc1C(=O)N1CC(C)CN1c1ncccc1Br (centres unmarked) [Example 370, (4-amino-1,7-dimethyl-1H-pyrazolo[4,3-c]quinolin-8-yl)(2-(3-bromopyridin-2-yl) -4-methylpyrazolidin-1-yl)methanone]",118 nM,29.42,3470 nM,5.7 nM,–
"Cn1ncc2c(N)nc3cc(Cl)c(C(=O)N4CC(F)(F)CN4c4ncc(Cl)cc4F)cc3c21 [Example 460, (4-amino-7-chloro-1-methyl-1H-pyrazolo [4,3-c]quinolin-8-yl)(2-(5-chloro-3-fluoropyridin-2-yl)-4,4-difluoropyrazolidin-1-yl)methanone]",18 nM,26.61,479 nM,8.2 nM,–
Cc1cc2nc(N)c3c(c2cc1C(=O)N1CC(C)CN1c1ncccc1F)COC3C (centres unmarked) [Example 510],222 nM,33.55,7450 nM,–,4.8 nM

# Source: EP4745134A1 (Jiangsu Yahong Meditech Co., Ltd., priority 2023, dated 2025)
